Where two headings read alike, the source gives them in different places.
Columns and labels:
[1] = target: T1, CCR3 (Homo sapiens, UniProt P51677); conditions: assay not stated; from the cited reference; cited from earlier work
T1 sequence (P51677 1-355): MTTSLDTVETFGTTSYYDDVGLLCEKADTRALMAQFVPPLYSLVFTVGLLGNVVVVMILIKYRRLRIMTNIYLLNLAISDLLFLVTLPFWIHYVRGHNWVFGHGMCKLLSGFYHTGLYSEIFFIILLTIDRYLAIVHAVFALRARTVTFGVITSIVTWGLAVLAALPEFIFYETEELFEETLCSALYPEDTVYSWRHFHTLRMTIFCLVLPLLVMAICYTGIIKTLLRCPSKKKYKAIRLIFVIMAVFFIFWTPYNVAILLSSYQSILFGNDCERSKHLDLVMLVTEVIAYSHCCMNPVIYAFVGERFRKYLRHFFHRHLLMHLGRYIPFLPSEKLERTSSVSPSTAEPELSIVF

[2] = target: T1, CCR3; conditions: from the cited reference; read-out: IC50 (binding); cited from earlier work
[3] = target: T1, CCR3; conditions: from the cited reference; read-out: IC50 (chemotaxis); cited from earlier work
[4] = target: T1, CCR3; conditions: from the cited reference; read-out: IC50 (Calcium influx); cited from earlier work
[5] = test system: human eotaxin-1 induced eosinophil shape change; conditions: human whole blood; read-out: IC50, antagonism of human eotaxin-1 induced eosinophil shape change; cited from earlier work
[6] = test system: refractory wet Age-Related Macular Degeneration (wAMD); test: clinical case, refractory subject eyes: oral Compound 1 followed by IVT anti-VEGF; format: in vivo, human; conditions: Compound 1 regimen followed by IVT anti-VEGF, summary
Method: Subjects with refractory wet Age-Related Macular Degeneration (wAMD) were administered 400 mg of Compound 1 CCR antagonist orally twice per day (BID) for a total dose of 800 mg per day. The treatment regimen of Compound 1 lasted 6-weeks. Refractory subjects for this 6-week regimen were described as having persistent subretinal fluid, intraretinal fluid, and absence of improvement in visual acuity after at least 3 consecutive (approximately 4-6 weeks apart) IVT anti-VEGF injections. After the end of a clinical trial consisting of 6-weeks of Compound 1 CCR antagonist treatment, and four weeks of clinical trial follow up with no additional treatment, a subject with heavily pre-treated bilateral disease entered back into normal treatment with their physician and was treated or re-treated with α-VEGF agents per physician judgment guided by standard criteria such as new CNV activity on OCT/angiography OCT (angio-OCT or aOCT) or foveal subretinal fluid (SRF)/intra-retinal fluid (IRF) or PED. Different α-VEGF agents (described in FIGS. 4-5, 9-10, 14-15, 19-21 and Tables D and H) were administered by intra-vitreal injection. […] The central retinal thickness (CRT) was measured automatically (software version 9.6). […] Subretinal and intraretinal fluid presence was assessed manually. […] CNV activity signs such as neovascular vasculature seen on OCT angiography were monitored. […]

[7] = test system: choroidal neovascularization (CNV) secondary to wAMD; test: clinical cases, naïve subject eyes: oral Compound 1 followed by IVT anti-VEGF; format: in vivo, human
Method: Newly diagnosed subjects with choroidal neovascularization (CNV) secondary to wAMD were administered 400 mg of Compound 1 CCR antagonist orally twice per day (BID) for a total dose of 800 mg per day. The clinical trial treatment regimen included 6 weeks of Compound 1 followed by 4 weeks of safety follow up (weeks 7 and 8 as in office visits and follow up by phone at week 10) with no additional Compound 1 treatment. Subject treatment visits took place once per week where mean changes in BCVA as measured by ETDRS were noted, slit lamp and SD-OCT performed, and intraocular pressure taken. Subjects then returned to routine treatment with their physician post clinical trial and were treated or re-treated with α-VEGF agents per physician judgment guided by standard criteria such as new CNV activity on OCT/angio-OCT (aOCT) or increased foveal subretinal fluid (SRF)/intra-retinal fluid (IRF). Different α-VEGF agents (described in FIGS. 1-3, 6-8, 11-13, and 16-18, 21 and Tables A-C and E-G) were administered by intra-vitreal injection. For aflibercept, 2 mg in 0.05 mL was given per single intravitreal injection. For bevacizumab, 1.25 mg in 0.05 mL was given per single intravitreal injection. For ranibizumab, 0.5 mg in 0.05 mL was given per single intravitreal injection. All OCT tests were performed using REVO NX (Optopol Technology, Poland). A 3-dimensional (3D) scanning protocol covering a 7×7 mm area was used (1024 A-scans×64 tomograms). The central retinal thickness (CRT) was measured automatically (software version 9.6). The detection of the fovea and the accuracy of layers segmentation was checked by the operator. If necessary, the fovea location and the outer retinal boundaries were corrected manually by moving the pointer to the desired position. In such cases, the central macular thickness value was recalculated. Subretinal and intraretinal fluid presence was assessed manually. SRF was defined as a hyporeflective space between retinal pigment epithelium and the sensory retina, whereas IRF as ovoid or round spaces within the retina, with a low reflectivity content. SRF and IRF was distinguished from the outer retinal tubulations (ORTs) and degenerative IRF. The latter were not recognized as a CNV activity sign. CNV activity signs such as neovascular vasculature seen on OCT angiography were monitored. Additionally, lipid exudates and enlargement of RPE elevation were noted.

[8] = test system: neovascular (wet) AMD; conditions: cited from earlier work; for patients with persistent presence of fluid at the retina (OCT or angiography): IVT, after two years of monthly injections
[9] = Patient Case 3, after 6 weeks oral Compound 1, once ranibizumab, subsequently bevacizumab

CN1CCC(c2ccccc2)[C@@H]1COc1cccnc1 (stereo partly drawn)
IC50 [1]: 195 nM

CC(=O)Nc1ccc2nc(SCC(=O)NC3CCN(Cc4ccc(Cl)c(Cl)c4)CC3)sc2c1
IC50 [1]: 1.5 nM

C[C@@H](NC(=O)Nc1cccc(-c2nnnn2C)c1)C(O)CN1CCC[C@@H](Cc2ccc(F)cc2)C1 (stereo partly drawn)
IC50 [2]: 0.3 nM | IC50 [3]: 0.038 nM

CCCN1CCC(Cc2ccc(F)cc2)C[C@@H]1CCCNC(=O)Nc1cccc(C(C)=O)c1 (stereo partly drawn)
IC50 [4]: 26 nM | IC50 [2]: 2 nM | IC50 [3]: 19 nM

NC(=O)c1ccc(CNC(=O)NCC2CN(Cc3ccc(Cl)c(Cl)c3)CCO2)cc1 (stereo not drawn)
IC50 [1]: 10 nM

O=C(NCC1CCCN(C2CCN(Cc3ccc(Cl)c(Cl)c3)CC2)C1)c1cccc2cccnc12 (stereo not drawn)
IC50 [1]: 30 nM

Cc1ccc(C(=O)N[C@@H](Cc2ccc(Cl)cc2)C(=O)N[C@@H](C)C(=O)Nc2ccc(Cl)cc2)c(C)c1
IC50 [1]: 3.5 nM

O=C(Nc1ccccc1[N+](=O)[O-])[C@@H]1CCCN1CNC1CC2CCC(C1)N2Cc1ccc2cc(F)ccc2c1 (stereo partly drawn)
IC50 [1]: 4.9 nM

CC1=C(CC(CCc2ccc([N+](=O)[O-])cc2)C2CCN(C(=O)c3ccncc3)CC2)C(=O)N(c2ccc(F)cc2)C1C (stereo not drawn)
IC50 [1]: 12 nM

Cc1ccc[n+]([O-])c1C(=O)N1CCC(=CC(=O)N[C@@H]2CCN(Cc3ccc4cc(F)ccc4c3)C2)CC1
IC50 [4]: 5.4 nM | IC50 [2]: 3 nM | IC50 [3]: 19.9 nM

Cc1ccc(C(=O)N2CCC(=CC(=O)N[C@@H]3CCN(Cc4ccc5cc(F)ccc5c4)C3)CC2)nn1
IC50 [4]: 6.2 nM

Cc1cc(C(=O)N(C)C)cc(NC(=O)[C@H]2CCC(=O)N2C2CCN(Cc3ccc(Cl)c(C)c3)CC2)n1 [Compound 1]
IC50 [5]: 42.5 ± 43.5 nM | CRT [6]: stabilized | Central retinal pigmental epithelium detachment height [6]: reduced

aflibercept
average anti-VEGF doses required per year ([7]; Patient Case 2, after 6 weeks oral Compound 1): 2.36 doses per year

bevacizumab
patients with persistent presence of fluid at the retina (OCT or angiography) [8]: 67.4% | average anti-VEGF doses required per year ([7]; Patient Case 1, after 6 weeks oral Compound 1): 0.667 dose per year | average anti-VEGF doses required per year [7, 9]: 1.23 dose per year

B1: ranibizumab (antibody, chains of the INN, looked up, V domains shown)
VH: EVQLVESGGGLVQPGGSLRLSCAASGYDFTHYGMNWVRQAPGKGLEWVGWINTYTGEPTYAADFKRRFTFSLDTSKSTAYLQMNSLRAEDTAVYYCAKYPYYYGTSHWYFDVWGQGTLVTVSS
VL: DIQLTQSPSSLSASVGDRVTITCSASQDISNYLNWYQQKPGKAPKVLIYFTSSLHSGVPSRFSGSGSGTDFTLTISSLQPEDFATYYCQQYSTVPWTFGQGTKVEIK
modifications: Fab
notes: anti-VEGF antibody, intravitreal injection
patients with persistent presence of fluid at the retina (OCT or angiography) [8]: 51.5% | additional average letter gain with monthly dosing versus less frequent dosing ([8]; nine months after 3 initial monthly doses, FDA label): 1-2 letter | loss of visual acuity benefit, dosing every 3 months compared with continued monthly dosing ([8]; over the next 9 months after 4 monthly doses, FDA label): ~5 letter | average anti-VEGF doses required per year [7, 9]: 1.23 dose per year

Reference: patent US12692301B2, “Methods of improving retina-associated disease outcome using CCR3-inhibitors” (ALKAHEST INC., priority 2020, dated 2026)
